The record followed here is patent US20260265233A1, “BENZOTHIOPHENE DERIVATIVES AS RXFP1 AGONISTS” (BRISTOL-MYERS SQUIBB COMPANY, priority 2021, published 2026).

By EC50 is commonly meant the midpoint of the concentration-response curve.

Each structure is given as a SMILES string.

This test concerns the target T1, human RXFP1 (Homo sapiens, UniProt Q9HBX9).
T1 construct: expressed in transfected cells
T1 sequence (Q9HBX9 1-757): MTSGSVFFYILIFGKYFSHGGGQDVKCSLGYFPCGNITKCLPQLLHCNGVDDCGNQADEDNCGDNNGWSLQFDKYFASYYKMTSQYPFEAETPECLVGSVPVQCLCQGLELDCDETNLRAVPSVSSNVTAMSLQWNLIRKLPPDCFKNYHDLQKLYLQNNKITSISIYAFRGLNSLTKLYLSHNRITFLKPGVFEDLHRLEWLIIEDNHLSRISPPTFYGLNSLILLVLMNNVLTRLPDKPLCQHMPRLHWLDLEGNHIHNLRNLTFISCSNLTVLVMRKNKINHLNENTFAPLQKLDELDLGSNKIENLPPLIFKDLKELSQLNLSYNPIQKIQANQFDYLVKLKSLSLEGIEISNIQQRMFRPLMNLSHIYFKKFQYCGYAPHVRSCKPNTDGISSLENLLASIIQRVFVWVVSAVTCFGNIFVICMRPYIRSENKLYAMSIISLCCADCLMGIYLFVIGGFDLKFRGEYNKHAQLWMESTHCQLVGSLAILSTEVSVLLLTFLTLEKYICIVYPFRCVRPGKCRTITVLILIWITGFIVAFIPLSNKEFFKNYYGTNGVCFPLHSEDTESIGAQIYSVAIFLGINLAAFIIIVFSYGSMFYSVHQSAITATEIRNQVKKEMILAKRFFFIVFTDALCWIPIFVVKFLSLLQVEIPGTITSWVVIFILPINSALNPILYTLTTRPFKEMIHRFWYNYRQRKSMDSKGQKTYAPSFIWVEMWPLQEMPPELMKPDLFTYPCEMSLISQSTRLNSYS
The test is described as follows: hRXFP1 HEK293 cAMP assay (HTRF). It counts as cell-based. The following applies: HEK293 cells stably expressing human RXFP1; 30 min at rt; intracellular cAMP by HTRF. The method, boiled down:
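HEK293 cells stably expressing human RXFP1 treated 30 min at rt with compound (0.010 nM to 50 μM, 2% DMSO) in HBSS/HEPES buffer with 0.5 mM IBMX. Intracellular cAMP measured by HTRF (665/590 nm ratio) against a cAMP standard curve; potency fitted by 4-parameter logistic.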
A general note: Changes in cAMP serve as a functional read-out for many G protein-coupled receptors.
`COc1cc(C)c(C(=O)NCC2(S(C)(=O)=O)CC2)cc1C(=O)Nc1c(C(=O)Nc2ccc(F)c(C(F)(F)F)c2)sc2cc(C(F)(F)F)ccc12` [Example 187, N1-(2-((4-fluoro-3-(trifluoromethyl)phenyl)carbamoyl)-6-(trifluoromethyl)benzo[b]thiophen-3-yl)-6-methoxy-4-methyl-N3-((1-(methylsulfonyl)cyclopropyl)methyl) isophthalamide] gave an EC50 of 0.328 µM.
The figure for `COc1ccc(S(=O)(=O)N2CCC[C@@H](NC(=O)CCO)C2)cc1C(=O)Nc1c(C(=O)Nc2ccc(F)c(C(F)(F)F)c2)sc2cc(C(F)(F)F)ccc12` [Example 189, (R)-N-(4-fluoro-3-(trifluoromethyl)phenyl)-3-(5-((3-(3-hydroxy-propanamido)piperidin-1-yl)sulfonyl)-2-methoxy-benzamido)-6-(trifluoromethyl) benzo[b] thiophene-2-carboxamide] is 0.491 µM; for `COc1ccc(C(=O)NC(C)(C)CO)cc1C(=O)Nc1c(C(=O)Nc2ccc(F)c(C(F)(F)F)c2)sc2cc(C(F)(F)F)ccc12` [Example 190, N3-(2-((4-fluoro-3-(trifluoromethyl)phenyl)carbamoyl)-6-(trifluoromethyl)benzo[b]thiophen-3-yl)-N1-(1-hydroxy-2-methylpropan-2-yl)-4-methoxy-isophthalamide] it is 0.689 µM.
Regarding `COc1ccc(C(=O)N2CC(O)C2)cc1C(=O)Nc1c(C(=O)Nc2ccc(F)c(C(F)(F)F)c2)sc2cc(C(F)(F)F)ccc12` [Example 191, N-(4-fluoro-3-(trifluoromethyl)phenyl)-3-(5-(3-hydroxyazetidine-1-carbonyl)-2-methoxy-benzamido)-6-(trifluoromethyl) benzo[b] thiophene-2-carboxamide], the EC50 was determined as 0.346 µM.
The value for `COc1ccc(C2CC3CCC(C2)N3CC(N)=O)cc1C(=O)Nc1c(C(=O)Nc2ccc(F)c(C(F)(F)F)c2)sc2cc(C(F)(F)F)ccc12` (centres unmarked) [Example 192, 3-(5-(8-(2-amino-2-oxoethyl)-8-azabicyclo[3.2.1]octan-3-yl)-2-methoxy-benzamido)-N-(4-fluoro-3-(trifluoromethyl)phenyl)-6-(trifluoromethyl) benzo[b] thiophene-2-carboxamide] was 0.889 µM.
The value for `COc1ccc(C2CC3CCC(C2)N3CCS(C)(=O)=O)cc1C(=O)Nc1c(C(=O)Nc2ccc(F)c(C(F)(F)F)c2)sc2cc(C(F)(F)F)ccc12` (centres unmarked) [Example 193, N-(4-fluoro-3-(trifluoromethyl)phenyl)-3-(2-methoxy-5-(8-(2-(methylsulfonyl)ethyl)-8-azabicyclo[3.2.1]octan-3-yl)benzamido)-6-(trifluoromethyl) benzo[b] thiophene-2-carboxamide] was 0.3 µM; that for `COc1ccc(N2CCC3(CN(CCS(C)(=O)=O)C3)C2)cc1C(=O)Nc1c(C(=O)Nc2ccc(F)c(C(F)(F)F)c2)sc2cc(C(F)(F)F)ccc12` [Example 194, N-(4-fluoro-3-(trifluoromethyl)phenyl)-3-(2-methoxy-5-(2-(2-(methylsulfonyl)ethyl)-2,6-diazaspiro[3.4]octan-6-yl)benzamido)-6-(trifluoromethyl) benzo[b] thiophene-2-carboxamide] was 0.746 µM.
`COc1ccc(C(=O)N2CC[C@@H](O)C2)cc1C(=O)Nc1c(C(=O)Nc2ccc(F)c(C(F)(F)F)c2)sc2cc(C3CC3)ncc12` [Example 195, (R)-6-cyclopropyl-N-(4-fluoro-3-(trifluoromethyl)phenyl)-3-(5-(3-hydroxy-pyrrolidine-1-carbonyl)-2-methoxy-benzamido) thieno[3,2-c] pyridine-2-carboxamide] displayed a 50% effective concentration (EC50) of 0.91 µM.
As to `COc1ccc(C(=O)NCC2(S(C)(=O)=O)CC2)cc1C(=O)Nc1c(C(=O)Nc2ccc(F)c(C(F)(F)F)c2)sc2cc(Cl)ncc12` [Example 196, N3-(6-chloro-2-((4-fluoro-3-(trifluoromethyl)phenyl)carbamoyl)thieno[3,2-c]pyridin-3-yl)-4-methoxy-N1-((1-(methylsulfonyl)cyclopropyl)methyl) isophthalamide], the concentration giving a half-maximal response (EC50) was 0.07 µM.
The value for `COc1ccc(C(=O)NCCS(C)(=O)=O)cc1C(=O)Nc1c(C(=O)Nc2ccc(F)c(C(F)(F)F)c2)sc2cc(Cl)ncc12` [Example 197, N3-(6-chloro-2-((4-fluoro-3-(trifluoromethyl)phenyl)carbamoyl)thieno[3,2-c]pyridin-3-yl)-4-methoxy-N1-(2-(methylsulfonyl)ethyl) isophthalamide] was 0.45 µM; that for `COc1ccc(C(=O)N2CC[C@@H](O)C2)cc1C(=O)Nc1c(C(=O)Nc2ccc(F)c(C(F)(F)F)c2)sc2cc(Cl)ncc12` [Example 199, (R)-6-chloro-N-(4-fluoro-3-(trifluoromethyl)phenyl)-3-(5-(3-hydroxypyrrolidine-1-carbonyl)-2-methoxy-benzamido) thieno[3,2-c]pyridine-2-carboxamide] was 0.69 µM; that for `COc1ccc(CCCO)cc1C(=O)Nc1c(C(=O)Nc2ccc(F)c(C(F)(F)F)c2)sc2cc(Cl)ncc12` [Example 200, 6-chloro-N-(4-fluoro-3-(trifluoromethyl)phenyl)-3-(5-(3-hydroxypropyl)-2-methoxy-benzamido) thieno[3,2-c]pyridine-2-carboxamide] was 0.4 µM.
Compound `COc1ccc(-c2cc(C(=O)O)ccc2F)cc1C(=O)Nc1c(C(=O)Nc2ccc(F)c(C(F)(F)F)c2)sc2cc(Cl)ncc12` [Example 201, 3′-((6-chloro-2-((4-fluoro-3-(trifluoromethyl)phenyl)carbamoyl)thieno[3,2-c]pyridin-3-yl)carbamoyl)-6-fluoro-4′-methoxy-[1,1′-biphenyl]-3-carboxylic acid] gave an EC50 of 0.32 µM.
The value for `COc1ccc(C#CCO)cc1C(=O)Nc1c(C(=O)Nc2ccc(F)c(C(F)(F)F)c2)sc2cc(C3CC3)ncc12` [Example 202, 6-cyclopropyl-N-(4-fluoro-3-(trifluoromethyl)phenyl)-3-(5-(3-hydroxyprop-1-yn-1-yl)-2-methoxy-benzamido) thieno[3,2-c]pyridine-2-carboxamide] was 1.01 µM; that for `COc1ccc(C(=O)NCC(C)(C)S(C)(=O)=O)cc1C(=O)Nc1c(C(=O)Nc2ccc(F)c(C(F)(F)F)c2)sc2cc(C(F)(F)F)ccc12` [Example 203, N3-(2-{[4-fluoro-3-(trifluoromethyl)phenyl]carbamoyl}-6-(trifluoromethyl)-1-benzothiophen-3-yl)-N1-(2-methanesulfonyl-2-methylpropyl)-4-methoxybenzene-1,3-dicarboxamide] was 0.0361 µM; that for `COc1ccc(C2CC3(C2)CN(S(C)(=O)=O)C3)cc1C(=O)Nc1c(C(=O)Nc2ccc(F)c(C(F)(F)F)c2)sc2cc(C(F)(F)F)ccc12` [Example 204, N-(4-fluoro-3-(trifluoromethyl)phenyl)-3-(2-methoxy-5-(2-(methylsulfonyl)-2-azaspiro[3.3]heptan-6-yl)benzamido)-6-(trifluoromethyl) benzo[b] thiophene-2-carboxamide] was 1.17 µM.
The compound `COc1ccc(C2CC3(C2)CN(CCS(C)(=O)=O)C3)cc1C(=O)Nc1c(C(=O)Nc2ccc(F)c(C(F)(F)F)c2)sc2cc(C(F)(F)F)ccc12` [Example 205, N-(4-fluoro-3-(trifluoromethyl)phenyl)-3-(2-methoxy-5-(2-(2-(methylsulfonyl)ethyl)-2-azaspiro[3.3]heptan-6-yl)benzamido)-6-(trifluoromethyl) benzo[b] thiophene-2-carboxamide] had an EC50 of 1.1 µM. This EC50 and that of the compound before are within 1.5-fold of each other.
Compound `COc1ccc(C2CC3(C2)CN(C(=O)CN(C)C)C3)cc1C(=O)Nc1c(C(=O)Nc2ccc(F)c(C(F)(F)F)c2)sc2cc(C(F)(F)F)ccc12` [Example 206, 3-(5-(2-(dimethylglycyl)-2-azaspiro[3.3]heptan-6-yl)-2-methoxy-benzamido)-N-(4-fluoro-3-(trifluoromethyl)phenyl)-6-(trifluoromethyl) benzo[b] thiophene-2-carboxamide] gave an EC50 of 2.08 µM.
The value for `COc1ccc(C2CC3(CNC3)C2)cc1C(=O)Nc1c(C(=O)Nc2ccc(F)c(C(F)(F)F)c2)sc2cc(C(F)(F)F)ccc12` [Example 207, N-(4-fluoro-3-(trifluoromethyl)phenyl)-3-(2-methoxy-5-(2-azaspiro[3.3]heptan-6-yl)benzamido)-6-(trifluoromethyl) benzo[b] thiophene-2-carboxamide] was 1.46 µM; that for `COc1ccc(N2CCC3(C2)CN(C2COC2)C3)cc1C(=O)Nc1c(C(=O)Nc2ccc(F)c(C(F)(F)F)c2)sc2cc(C(F)(F)F)ccc12` [Example 208, N-(4-fluoro-3-(trifluoromethyl)phenyl)-3-(2-methoxy-5-(2-(oxetan-3-yl)-2,6-diazaspiro[3.4]octan-6-yl)benzamido)-6-(trifluoromethyl) benzo[b] thiophene-2-carboxamide] was 1.48 µM.
